# Laboratory results as given in US11789013B2, “Componential analyzer, drug efficacy analyzer, and analysis method” (Hitachi High-Tech Corporation, priority 2013, dated 2023).
# Tested on: hepatocytes
# Test: Drug distribution / efflux fraction analysis in cultured hepatocytes (basolateral efflux, biliary excretion, intracellular fraction)
# Type: in vitro ADME, rat
# Details: for ratio of the amount of drug excreted into the bile duct to the total amount of drug taken up into the cells (BiRD), (B1−B2)/(C1+C2): pattern 1, sequences 1 (EGTA disrupted) and 2 (maintained), 37° C.; for ratio of the amount of drug excreted into the bile duct to the total amount of drug taken up into the cells (BiRD), (B1−B2)/(C1+C2) / Sup fraction (first fraction of the basolateral efflux, S1), index for tendency to remain or not to remain in the cells: 30 minutes; for ratio of the amount of drug excreted into the bile duct to the total amount of drug taken up into the cells (BiRD), (B1−B2)/(C1+C2) / ratio of the amount of drug excreted via transporter to the amount of drug excreted to the basolateral side (RexEMTP), (B2-B3)/B2: fluorescence; for ratio of the amount of drug excreted via transporter to the amount of drug excreted to the basolateral side (RexEMTP), (B2-B3)/B2: pattern 1, step 5, 30 minutes, sequences 2 (37° C.) and 3 (4° C.); for Sup fraction (first fraction of the basolateral efflux, S1), index for tendency to remain or not to remain in the cells: pattern 2 (sum of steps 4, 5, 6 = 100%), step 4, 37° C., in %
# Method: Hepatocytes were prepared by in situ collagenase perfusion method. The details are as follows. A rat (5-6 week-old) is anesthetized with pentobarbital and laparotomy is performed to insert a catheter into the portal vein and inject the preperfusion solution (a Ca^2+ and Mg^2+ free Hanks' solution containing EGTA). After confirming that blood is sufficiently removed from the liver, the perfusion is stopped. The perfusate is changed into a collagenase solution to conduct perfusion. In this embodiment, the perfusion is conducted with a Hanks' solution containing 0.05% collagenase, but the collagenase solution is not limited to this. Once confirmed that the tissue between the cells was digested by collagenase, the perfusion is stopped. The liver is excised, sliced in a cooled Hanks' solution, and separated into cells by pipetting. Damaged hepatocytes are removed by centrifugation at 500 G for 5 minutes with an isotonic Percoll solution. The viability of the resultant hepatocytes is determined by the trypan blue-exclusion test. Hepatocytes having a viability of 85% or more are used for culture. Here, hepatocytes having a viability of 85% or more are used for culture, but such culture is, needless to say, not necessarily limited to the condition. In addition, the preparation of hepatocytes is not necessarily limited to that by in situ collagenase perfusion method. The hepatocytes to be used are not limited to those derived from a rat and the strain of rat is not limited. This embodiment uses hepatocytes, but cells are not limited to this.
# Hepatocytes prepared by in situ collagenase perfusion method as described above are suspended in a medium. The hepatocytes are suspended at a density of 5×10^5 cells/mL in a medium and plated onto a commercially available culture dish coated with collagen. The density upon plating, the medium, and the culture plate 001 are not particularly limited. The culture plate is illustrated in FIG. 1. A 24 well culture plate having 24 culture regions (wells, 002) is here illustrated, but the culture plate is not limited to this as long as it can contain predetermined cells and containers in other shapes may be used. After plating, culture is started under conditions of 5% CO2 and 37° C. using a CO2 incubator. After 18 hours or more, the first medium change is conducted. Although the medium to be used for culture 18 hours after the plating is not particularly limited, in this embodiment, the medium (FCS−), a medium in which FCS is removed from the medium (10% FCS+), supplemented with Matrigel is used. After this, medium change with the medium (FCS−) is conducted every 24 hours. As described later, testing is conducted under three different conditions (sequences 1, 2, and 3: described in detail in step 5) in step 5, three independent culture plates with the same conditions are prepared at this point. In steps 0 to 4 and step 5, the same testing operations are conducted in all the three sequences.
# The culture supernatant of the cells cultured in step 0 for 4 days is removed and 400 μL of Hanks' solution is added as a buffer. The cells are incubated at 37° C. for 10 minutes (FIG. 2, step 1). The type and amount of buffer are not particularly limited.
# The buffer is removed, and then 200 μL of 10 μM CDF (a fluorescent reagent) is added to the well. The plate is incubated at 37° C. for 30 minutes and then maintained at 4° C. for 5 minutes (FIG. 2, step 2). The type, concentration, and amount of the reagent are not particularly limited. CDF emits fluorescence and can be therefore easily quantified by a plate reader as a model reagent. The amount of administration, 200 μL, was chosen so that the cells as a whole in the well would be immersed in the reagent. The concentration of CDF may be a concentration conventionally used for a fluorescence assay of cells. This concentration is preferably applied as an amount of the reagent for the detection with a plate reader. […]
Substance,"ratio of the amount of drug excreted into the bile duct to the total amount of drug taken up into the cells (BiRD), (B1−B2)/(C1+C2)","ratio of the amount of drug excreted via transporter to the amount of drug excreted to the basolateral side (RexEMTP), (B2-B3)/B2","Sup fraction (first fraction of the basolateral efflux, S1), index for tendency to remain or not to remain in the cells"
CDF,18.58,41.08,70.82
Rhodamine123,4.92,52.52,39.29
